The text below walks through data of patent US20070178054A1, “ORAL ANTIMICROBIAL COMPOSITION” (priority 2005, published 2007).

Common to all, as to format: cell-based, Streptococcus mutans
Experiment [1] concerns S. mutans UA159. As to the kind of experiment: S. mutans growth in 96-well microtiter plate (OD 600 nm). The following applies: 24 h, E2 20 μg/ml, combination of both. As to the method:
(§1) Streptococcus mutans UA159 strain was used in these Examples. S. mutans strain UA159 was grown in Todd-Hewitt broth containing 0.3% yeast extract (THYE) at pH 7.0 and was subcultured routinely on THYE agar plates and incubated at 37° C. in an anaerobic chamber (5% CO2). In liquid media, cultures were incubated in closed screw-cap tubes without agitation at 37° C. in an anaerobic chamber (5% CO2)
(§2) Wells without cells were used as blank controls.
(§3) The microtiter plates were then incubated at 37° C. in an anaerobic chamber (5% CO2) for 24 hours without agitation. After the incubation, the growth was measured at 600 nm with a microplate reader. The planktonic cells were carefully removed, and plates were air dried overnight. The plates were then stained with 0.4% crystal violet for 10 minutes, rinsed with sterile distilled water and air dried for 15 minutes. Biofilm was quantified by measuring the absorbance of stained biofilm at 630 nm with a microplate reader.

For experiment [2], the system named is S. mutans UA159. As to the kind of experiment: S. mutans biofilm formation, crystal violet staining (OD 630 nm). The following applies: 24 h, E2 20 μg/ml, combination of both. As to the method:
as §1, §2, §3

The test system of experiment [3] is biofilm-embedded S. mutans. The experiment is described as follows: Survival of biofilm-embedded S. mutans (CFU counts), E2 peptide compositions, 12-well plates. The following applies: 20 h biofilm, E2 20 μg/ml, combination of both. As to the method: as §1
(§4) Biofilms were developed on 12-well polystyrene microtiter plates to provide a rapid and simple method for assaying biofilm-embedded live oral bacteria (e.g. S. mutans). A 4× diluted THYE medium supplemented with final concentration of 0.01% hog gastric mucin (Sigma, St. Louis, Mo.) was used as biofilm medium (BM). Formation of biofilms was initiated by inoculating 20 μl of S. mutans cell suspension (1.2×10^7 CFU/ml) into each well containing 2 ml of BM and four wells were set up: two for control and two for treatment with compositions comprising synthetic E2 peptide and Nisin or E2 and CHX. After cultures were incubated at 37° C. for 20 hours under an anaerobic condition, fluid medium was removed. The wells were rinsed once with 10 mM PBS buffer (pH 7.2) and biofilm-embedded cells were collected in two ml PBS buffer, gently sonicated for 15 seconds, serially diluted, spread on THYE plates, and incubated at 37° C. under anaerobic conditions. Biofilm-embedded viable cells were quantified by colony forming unit (CFU) counts after 48 hours of incubation.

In experiment [4] the test system is biofilm-embedded S. mutans. The experiment is described as follows: Survival of biofilm-embedded S. mutans (CFU counts), CSP compositions, 12-well plates. The following applies: 20 h biofilm, combination of both. The method, then:
as §1
as §4, with “developed in” for “developed on”, “mucin (Sigma)” for “mucin (Sigma, St. Louis, Mo.)”, “(BM). Fonnation” for “(BM). Formation”, “synthetic CSP” for “synthetic E2 peptide”, “or chlorhexidine or xylitol or triclosan or citric acid or zinc citrate or sodium fluoride or oleanolic acid or lansoprazole or epigallocatechin gallate or chitosan.” for “or E2 and CHX.”, “fluid media were” for “fluid medium was”

Experiment [5] relates to biofilm-embedded S. mutans. The experiment is described as follows: Survival of biofilm-embedded S. mutans (CFU counts), E2 peptide compositions, 12-well plates. The following applies: 20 h biofilm, E2 20 μg/ml, combination of both. This is another data set of the same source.
The mark [6] stands for this setting: chlorhexidine 0.15 μg/ml, control 1.4.
[7] abbreviates: CSP 40 μg/ml, chlorhexidine 0.15 μg/ml, control 1.4 × 10^6.
Where [8] appears, read: citric acid 1.2 mg/ml, control 0.34.
Where [9] appears, read: citric acid 1.2 mg/ml, control 1.23.
The mark [10] stands for this setting: CSP 40 μg/ml, citric acid 1200 μg/ml, control 3.4 × 10^5.
Where [11] appears, read: citric acid 1200 μg/ml, control 1.7.
Setting [12] is: lansoprazole 0.1 mM, control 0.38.
[13] abbreviates: lansoprazole 0.1 mM, control 1.32.
Where [14] appears, read: CSP 40 μg/ml, lansoprazole 37 μg/ml, control 1.2 × 10^6.
Setting [15] is: lansoprazole 37 μg/ml, control 8.
Setting [16] is: CSP 40 μg/ml, oleanolic acid 250 μg/ml, control 4 × 10^5.
Setting [17] is: sodium fluoride 600 μg/ml, control 0.40.
Where [18] appears, read: sodium fluoride 600 μg/ml, control 0.93.
[19] abbreviates: CSP 40 μg/ml, sodium fluoride 250 μg/ml, control 2.6 × 10^5.
Setting [20] is: sodium fluoride 800 μg/ml, control 2.9.
Where [21] appears, read: triclosan 25 μg/ml, control 0.33.
The mark [22] stands for this setting: triclosan 25 μg/ml, control 1.58.
The mark [23] stands for this setting: CSP 40 μg/ml, triclosan 500 μg/ml, control 6.8 × 10^5.
Where [24] appears, read: xylitol 15.2 mg/ml, control 0.37.
The mark [25] stands for this setting: xylitol 15.2 mg/ml, control 0.78.
[26] abbreviates: CSP 40 μg/ml, zinc citrate 1200 μg/ml, control 8 × 10^5.
The mark [27] stands for this setting: CSP 50 μg/ml, nisin 80 μg/ml, control 1.6 × 10^6.

Regarding `[H]/N=C(\N/C(=N/[H])NCCCCCCNC(=N)NC(=N)Nc1ccc(Cl)cc1)Nc1ccc(Cl)cc1` [CHX, Chlorhexidine, reference compound], in the experiment on S. mutans UA159 [1] (CHX 0.154 μg/ml, control 0.39), the “Growth (OD @ 600 nm)” value was found to be 0.39 OD. Besides, in the experiment on S. mutans UA159 [2] (CHX 0.154 μg/ml, control 0.88), the “Biofilm (OD @ 630 nm)” value is given as 1.00 OD. For the same compound, the “CFU × 10^6” value in experiment [3] (setting [6]) turned out to be 1.9 CFU × 10^6. For the same compound, in experiment [4] (setting [7]), the CPU is given as 2 × 10^6 CFU.
Take `O=C(O)CC(O)(CC(=O)O)C(=O)O` [Citric acid, citric acid]: the “Growth (OD @ 600 nm)” value in the experiment with S. mutans UA159 [1] (setting [8]) was determined as 0.02 OD. Moreover, the “Biofilm (OD @ 630 nm)” value in the experiment with S. mutans UA159 [2] (setting [9]) is on record as 0.38 OD. Further, the CPU in experiment [4] (setting [10]) is listed as 8 × 10^4 CFU. Besides, in experiment [5] (setting [11]), the “CFU × 10^6” value is 0.05 CFU × 10^6.
For the compound `O=C(O[C@@H]1Cc2c(O)cc(O)cc2O[C@@H]1c1cc(O)c(O)c(O)c1)c1cc(O)c(O)c(O)c1` [EGCg, Epigallocatechin gallate], in the experiment on S. mutans UA159 [1] (EGCg 150 μg/ml, control 0.32), the “Growth (OD @ 600 nm)” value was found to be 0.08 OD. For the same compound, the “Biofilm (OD @ 630 nm)” value in the experiment on S. mutans UA159 [2] (EGCg 150 μg/ml, control 1.52) is given as 0.41 OD.
In the case of `Cc1c(OCC(F)(F)F)ccnc1C[S+]([O-])c1nc2ccccc2[nH]1` (stereo not drawn) [Lansoprazole, lansoprazole, reference compound], the “Growth (OD @ 600 nm)” value in the experiment on S. mutans UA159 [1] (setting [12]) is given as 0.4 OD. Besides, the “Biofilm (OD @ 630 nm)” value in the experiment with S. mutans UA159 [2] (setting [13]) is 1.35 OD. The CPU in experiment [4] (setting [14]) is 1 × 10^6 CFU. For the same compound, the “CFU × 10^6” value in experiment [5] (setting [15]) was 6.2 CFU × 10^6.
In the case of `CC1(C)CC[C@]2(C(=O)O)CC[C@]3(C)C(=CC[C@@H]4[C@@]5(C)CC[C@H](O)C(C)(C)[C@@H]5CC[C@]43C)[C@@H]2C1` [OA, Oleanolic acid], in the experiment on S. mutans UA159 [1] (OA 2 μg/ml, control 0.4), the “Growth (OD @ 600 nm)” value was 0.32 OD. In addition, the “Biofilm (OD @ 630 nm)” value with S. mutans UA159 [2] (OA 2 μg/ml, control 0.8) is listed as 0.94 OD. Besides, in experiment [4] (setting [16]), the CPU was 1.7 × 10^5 CFU.
Turning to `[F-].[Na+]` [Sodium fluoride, sodium fluoride, reference compound], the “Growth (OD @ 600 nm)” value in the experiment on S. mutans UA159 [1] (setting [17]) is given as 0.02 OD. The “Biofilm (OD @ 630 nm)” value in the experiment on S. mutans UA159 [2] (setting [18]) is given as 0.12 OD. Also, the CPU in experiment [4] (setting [19]) is recorded as 7 × 10^5 CFU. In addition, the “CFU × 10^6” value in experiment [5] (setting [20]) came to 2.7 CFU × 10^6.
Consider `Oc1cc(Cl)ccc1Oc1ccc(Cl)cc1Cl` [Triclosan, triclosan, reference compound], for which, in the experiment with S. mutans UA159 [1] (setting [21]), the “Growth (OD @ 600 nm)” value came out at 0.33 OD. Also, in the experiment with S. mutans UA159 [2] (setting [22]), the “Biofilm (OD @ 630 nm)” value turned out to be 1.69 OD. In addition, the CPU in experiment [4] (setting [23]) is reported as 7 × 10^2 CFU.
Take `OC[C@@H](O)[C@H](O)[C@@H](O)CO` [Xylitol, xylitol]: in the experiment on S. mutans UA159 [1] (setting [24]), the “Growth (OD @ 600 nm)” value was 0.07 OD. In addition, the “Biofilm (OD @ 630 nm)” value in the experiment with S. mutans UA159 [2] (setting [25]) is reported as 0.32 OD.
In the case of `O=C([O-])CC(O)(CC(=O)[O-])C(=O)[O-].O=C([O-])CC(O)(CC(=O)[O-])C(=O)[O-].[Zn+2].[Zn+2].[Zn+2]` [Zinc citrate, zinc citrate], in experiment [4] (setting [26]), the CPU is given as 0.8 × 10^5 CFU.
On to “SGSLSTFFRLFNASFTQALGK (Synthetic E2) [Peptide E2, second arginine from the C' terminus substituted with alanine]”, for which the “Growth (OD @ 600 nm)” value in the experiment on S. mutans UA159 [1] (CHX 0.154 μg/ml, control 0.39) is listed as 0.11 OD; in the experiment with S. mutans UA159 [1] (EGCg 150 μg/ml, control 0.32) it was 0.22 OD; in the experiment with S. mutans UA159 [1] (OA 2 μg/ml, control 0.4), 0.26 OD; in the experiment with S. mutans UA159 [1] (chitosan 1 μg/ml, control 0.37), 0.28 OD; in the experiment with S. mutans UA159 [1] (setting [8]), 0.26 OD; in the experiment on S. mutans UA159 [1] (setting [12]) it was 0.2 OD. The “Growth (OD @ 600 nm)” value is given as 0.11 OD with S. mutans UA159 [1] (nisin 80 μg/ml, control 0.36); 0.23 OD in the experiment with S. mutans UA159 [1] (setting [17]); 0.12 OD with S. mutans UA159 [1] (setting [21]); 0.12 OD in the experiment on S. mutans UA159 [1] (setting [24]). The “Biofilm (OD @ 630 nm)” value with S. mutans UA159 [2] (CHX 0.154 μg/ml, control 0.88) is 0.34 OD; with S. mutans UA159 [2] (EGCg 150 μg/ml, control 1.52), 0.92 OD; in the experiment with S. mutans UA159 [2] (OA 2 μg/ml, control 0.8) it was 0.33 OD; in the experiment on S. mutans UA159 [2] (chitosan 1 μg/ml, control 2.10) it was 1.18 OD; in the experiment on S. mutans UA159 [2] (setting [9]), 0.54 OD; in the experiment on S. mutans UA159 [2] (setting [13]), 0.4 OD. Further, the “Biofilm (OD @ 630 nm)” value is 0.24 OD in the experiment on S. mutans UA159 [2] (nisin 80 μg/ml, control 1.03); 0.16 OD with S. mutans UA159 [2] (setting [18]); 1.00 OD in the experiment on S. mutans UA159 [2] (setting [22]); 0.34 OD in the experiment with S. mutans UA159 [2] (setting [25]). Besides, the “CFU × 10^6” value in experiment [3] (setting [6]) turned out to be 0.9 CFU × 10^6; in experiment [3] (nisin 80 μg/ml, control 2.8), 2.5 CFU × 10^6; in experiment [5] (chitosan 1 μg/ml, control 1.4), 0.1 CFU × 10^6; in experiment [5] (setting [11]), 0.6 CFU × 10^6; in experiment [5] (setting [15]), 4.3 CFU × 10^6; in experiment [5] (setting [20]), 1 CFU × 10^6.
As to “SGSLSTFFRLFNRSFTQALGK (Streptococcus mutans) [CSP]”, the CPU is listed as 2.2 × 10^5 CFU in experiment [4] (CSP 40 μg/ml, chitosan 0.25 μg/ml, control 7.6 × 10^5); 0.1 × 10^6 CFU in experiment [4] (setting [7]); 2 × 10^4 CFU in experiment [4] (setting [10]); 1.4 × 10^6 CFU in experiment [4] (setting [14]); 2 × 10^4 CFU in experiment [4] (setting [16]); 1.7 × 10^5 CFU in experiment [4] (setting [19]). Moreover, the figures for the CPU in experiment [4] (setting [23]), in experiment [4] (setting [26]) and in experiment [4] (setting [27]) were 7 × 10^4 CFU, 0.5 × 10^5 CFU and 1 × 10^6 CFU, respectively.
Regarding nisin, in the experiment on S. mutans UA159 [1] (nisin 80 μg/ml, control 0.36), the “Growth (OD @ 600 nm)” value amounted to 0.23 OD. The “Biofilm (OD @ 630 nm)” value in the experiment with S. mutans UA159 [2] (nisin 80 μg/ml, control 1.03) turned out to be 0.6 OD. Further, in experiment [3] (nisin 80 μg/ml, control 2.8), the “CFU × 10^6” value is recorded as 3.0 CFU × 10^6. In addition, in experiment [4] (setting [27]), the CPU is listed as 1 × 10^6 CFU.
